We go through 21 molecules from EP2027772A1, “Skin-friendly insect repellent” (Beiersdorf AG, priority 2007, dated 2009).

Molecules are shown by their SMILES.

The nature of one data set: physchem.
Details: not given
`OCCCCCO` [1,5 Pentandiol]: the logP (commonly the decadic logarithm of the partition coefficient of the neutral form, usually between octanol and water) is -0.6.

`CCC(CO)(CO)CO` [2-Ethyl-2-Hydroxymethyl 1,3 Propandiol] displayed a logP of -0.8.

Turning to `CC(O)CCO` (stereo not drawn) [1,3 Butandiol], the logP is -0.7.

For `OCCCCCCO` [1,6 Hexandiol], the logP was -0.1.

`OCC(CO)(CO)CO` [2,2 Bishydroxymethyl 1,3 Propanediol] showed a logP of -2.4.

`CCCCC(CC)COCC(O)CO` (stereo not drawn) [3-[(2-Ethylhexyl)oxy]-1,2 propandiol] yielded a logP of 2.1.

Staying with this data set, now noted: n-octanol/water.
Molecule `CCCCCCC(O)CO` (stereo not drawn) [1,2 Octandiol] yielded a lipophilicity (logP) of 1.3.

With `CCCCCCCCC(O)CO` (stereo not drawn) [1,2-Decandiol], the logP came to 2.4.

Consider `CCC(CO)(CO)COCC(CC)(CO)CO` [3,3,7,7 Tetrahydroxymethyl 5 oxanonan], for which the logP is -0.3.

`CC(CO)CO` [2-Methyl-1,3-Propanediol] registered a lipophilicity (logP) of -0.7.

Consider `CC(O)CC(C)(C)O` (stereo not drawn) [2-Methyl-2,4 Pentandiol], for which the logP was determined as 0.

On to `COCC(O)COC` [1,3-Dimethoxy-2-propanol], for which the logP was -0.5.

As for `CC(C)(O)CCO` [3-Methyl 1,3 Butanediol], the logP is -0.3.

For `CCCC(O)CO` (stereo not drawn) [1,2 Pentandiol], the logP was -0.3.

For the molecule `CCCCCCCC(O)CO` (stereo not drawn) [1,2 Nonanediol], the logP is 2.5.

The molecule `CCCCCC(O)CO` (stereo not drawn) [1,2 Heptanediol] came in with a logP of 1.5.

For `CCCCCC(O)C(O)CO` (stereo not drawn) [1,2,3 Octanetriol], the logP is 0.15.

Molecule `CCCCC(O)CO` (stereo not drawn) [1,2 Hexandiol] registered a logP of 1.

The next data set in a line: Octanol/water partition coefficient (log P), shake-flask with UV spectroscopy; alternatively calculated by Hansch and Leo.
Details: not given
As to `CC(C)(CO)CO` [Neopentanediol, Neopentyleme Glyol], the “Log P-Wert” value is -0,3.

Staying with this data set, now noted: n-Octanol/Wasser.
On to `CC(O)CO` (stereo not drawn) [1,2 Propandiol], for which the “Log P-Wert” value is -1,3.

On to `OCCCCO` [Butane-1,4diol, Tetramethylene Glucol], for which the “Log P-Wert” value is on record as -1.
